Consider 30 compounds from publication PMC9250534, “Synthesis and direct assay of large macrocycle diversities by combinatorial late-stage modification at picomole scale” (Nature Communications, 2022).

SMILES strings stand for the structures. Numbered stars: 1 amine (or outer) side, 2 acyl side, 3 side chain; on linkers, the order of the positions; unused ones are H or OH. Bridge positions count the residues as written; N and C are the ends. Square brackets hold non-standard residues; d marks the D form. Side chains are listed from the residue outwards. Peptide text beside a SMILES is read from it. * marks the point of attachment. ξ: configuration not given here. Propanoyl(3-(4-Cl-Ph)) = O=C(CCc1ccc(Cl)cc1)*; Pyrazinoyl(5-oxo-4H) = O=C(c1c[nH]c(=O)cn1)*; ξNaproxenoyl = COc1ccc2cc(C(C)C(=O)*)ccc2c1; 1,2,3Thiadiazole5CO(4-Me) = Cc1nnsc1C(=O)*; Benzoyl(3-CF3) = O=C(c1cccc(C(F)(F)F)c1)*; Tetrahydropyran4carbonyl = O=C(C1CCOCC1)*; Phenylacetyl(4-Cl) = O=C(Cc1ccc(Cl)cc1)*; X11 = O=C(c1cccc(S(F)(F)(F)(F)F)c1)*; 2Thenoyl(5-Cl) = O=C(c1ccc(Cl)s1)*; Benzoyl(3-Cl) = O=C(c1cccc(Cl)c1)*; Benzoyl(4-Cl) = O=C(c1ccc(Cl)cc1)*; Morpholinoacetyl = O=C(CN1CCOCC1)*; Benzoyl(3-OH) = O=C(c1cccc(O)c1)*; Pyrazinecarbonyl = O=C(c1cnccn1)*; Pentanoyl(4-Me) = CC(C)CCC(=O)*; X5 = O=C(c1cc2cc(Cl)ccc2[nH]1)*; X14 = O=C(C1(c2ccccc2)CCCCC1)*; Cysteamide = C(CS[*:3])N[*:1]; X3 = O=C(Cc1c[nH]c2ccccc12)*; Me3Gly = C[N+](C)(C)CC(=O)*; X12 = Cc1nc2ccccn2c1C(=O)*; Isovaleryl = CC(C)CC(=O)*; MeOSuc = COC(=O)CCC(=O)*; X1 = O=C(/C=C/c1ccccc1)*; X16 = Cc1cc(C(=O)*)ccc1O; 2Furoyl = O=C(c1ccco1)*; X17 = O=C(c1ccc(Br)o1)*; Dap = NC[CH](N)C(=O)O; Bz = O=C(c1ccccc1)*; Mpa = O=C(O)CCS

Chain of MDM2 (Q00987 whole entry, the tested form may be a part): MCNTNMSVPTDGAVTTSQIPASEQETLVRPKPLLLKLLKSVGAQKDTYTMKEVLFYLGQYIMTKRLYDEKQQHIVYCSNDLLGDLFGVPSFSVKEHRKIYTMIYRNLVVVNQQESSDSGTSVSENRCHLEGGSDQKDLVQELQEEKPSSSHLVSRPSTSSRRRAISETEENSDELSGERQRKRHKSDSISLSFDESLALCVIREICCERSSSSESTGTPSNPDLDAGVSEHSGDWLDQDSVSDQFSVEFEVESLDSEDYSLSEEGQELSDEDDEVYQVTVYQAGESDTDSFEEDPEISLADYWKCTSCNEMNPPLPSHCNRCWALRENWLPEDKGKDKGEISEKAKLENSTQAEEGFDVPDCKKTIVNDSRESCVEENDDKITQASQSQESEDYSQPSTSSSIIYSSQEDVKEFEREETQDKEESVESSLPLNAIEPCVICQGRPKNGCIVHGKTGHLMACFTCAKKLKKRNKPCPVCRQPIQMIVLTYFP

The first test has as its target MDM2 (Homo sapiens, UniProt Q00987). Kind of test: MDM2 binding screen: displacement of fluorescent p53 peptide probe FP53 (fluorescence polarization). Particulars: 10 µM macrocycle concentration; crude acylated macrocycle (scaffold Mpa-AA1-AA2-AA3 x carboxylic acid); p53-based fluorescent peptide, human MDM2. In a few lines: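 Macrocycle reaction products at a final 10 µM were tested for displacement of a p53-based fluorescent peptide from human MDM2. Fluorescence anisotropy (ex 485/em 535 nm) was read once per macrocycle at 25 °C.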
Regarding `O=C(NC[C@@H]1NC(=O)[C@@H]2CCCN2C(=O)CCSSCCNC(=O)[C@H](Cc2c[nH]c3ccccc23)NC1=O)c1ccc(Cl)s1` [X-B1-D3-W + A14] ([Mpa]P[Dap](2Thenoyl(5-Cl))W-Cysteamide; disulfide 1-C), the “fraction fluorescent probe displaced” value is listed as 0.1687. On to `Cc1nnsc1C(=O)NC[C@@H]1NC(=O)[C@@H]2CCCN2C(=O)CCSSCCNC(=O)[C@H](Cc2c[nH]c3ccccc23)NC1=O` [X-B1-D3-W + A15] ([Mpa]P[Dap](1,2,3Thiadiazole5CO(4-Me))W-Cysteamide; disulfide 1-C), for which the “fraction fluorescent probe displaced” value was 0.02409.

Take `O=C(NC[C@@H]1NC(=O)[C@@H]2CCCN2C(=O)CCSSCCNC(=O)[C@H](Cc2c[nH]c3ccccc23)NC1=O)c1ccco1` [X-B1-D3-W + A16] ([Mpa]P[Dap](2Furoyl)W-Cysteamide; disulfide 1-C): the “fraction fluorescent probe displaced” value turned out to be 0.06294. On the same count and under the same terms, the figure for `O=C(NC[C@@H]1NC(=O)[C@@H]2CCCN2C(=O)CCSSCCNC(=O)[C@H](Cc2c[nH]c3ccccc23)NC1=O)c1cccc(Cl)c1` [X-B1-D3-W + A17] ([Mpa]P[Dap](Benzoyl(3-Cl))W-Cysteamide; disulfide 1-C) is 0.2671. The same measure, in the same setting: next, `O=C(NC[C@@H]1NC(=O)[C@@H]2CCCN2C(=O)CCSSCCNC(=O)[C@H](Cc2c[nH]c3ccccc23)NC1=O)c1cccc(C(F)(F)F)c1` [X-B1-D3-W + A18] ([Mpa]P[Dap](Benzoyl(3-CF3))W-Cysteamide; disulfide 1-C): -0.006211; `O=C(NC[C@@H]1NC(=O)[C@@H]2CCCN2C(=O)CCSSCCNC(=O)[C@H](Cc2c[nH]c3ccccc23)NC1=O)c1cccc(S(F)(F)(F)(F)F)c1` [X-B1-D3-W + A19] ([Mpa]P[Dap](X11)W-Cysteamide; disulfide 1-C): 0.1429; `O=C(NC[C@@H]1NC(=O)[C@@H]2CCCN2C(=O)CCSSCCNC(=O)[C@H](Cc2c[nH]c3ccccc23)NC1=O)c1ccc(Br)o1` [X-B1-D3-W + A21] ([Mpa]P[Dap](X17)W-Cysteamide; disulfide 1-C): 0.2551. The same measure, in the same setting: next, `O=C(NC[C@@H]1NC(=O)[C@@H]2CCCN2C(=O)CCSSCCNC(=O)[C@H](Cc2c[nH]c3ccccc23)NC1=O)c1ccc(Cl)cc1` [X-B1-D3-W + A25] ([Mpa]P[Dap](Benzoyl(4-Cl))W-Cysteamide; disulfide 1-C): 0.2195; `O=C(NC[C@@H]1NC(=O)[C@@H]2CCCN2C(=O)CCSSCCNC(=O)[C@H](Cc2c[nH]c3ccccc23)NC1=O)c1cccc(O)c1` [X-B1-D3-W + A27] ([Mpa]P[Dap](Benzoyl(3-OH))W-Cysteamide; disulfide 1-C): 0.1229; `Cc1cc(C(=O)NC[C@@H]2NC(=O)[C@@H]3CCCN3C(=O)CCSSCCNC(=O)[C@H](Cc3c[nH]c4ccccc34)NC2=O)ccc1O` [X-B1-D3-W + A30] ([Mpa]P[Dap](X16)W-Cysteamide; disulfide 1-C): 0.08563.

Take `O=C(NC[C@@H]1NC(=O)[C@@H]2CCCN2C(=O)CCSSCCNC(=O)[C@H](Cc2c[nH]c3ccccc23)NC1=O)c1cc2cc(Cl)ccc2[nH]1` [X-B1-D3-W + A39] ([Mpa]P[Dap](X5)W-Cysteamide; disulfide 1-C): the “fraction fluorescent probe displaced” value is given as 0.06212. The same measure, in the same setting: the figure for `O=C(CCc1ccc(Cl)cc1)NC[C@@H]1NC(=O)[C@@H]2CCCN2C(=O)CCSSCCNC(=O)[C@H](Cc2c[nH]c3ccccc23)NC1=O` [X-B1-D3-W + A42] ([Mpa]P[Dap](Propanoyl(3-(4-Cl-Ph)))W-Cysteamide; disulfide 1-C) is 0.05096; for `O=C(NC[C@@H]1NC(=O)[C@@H]2CCCN2C(=O)CCSSCCNC(=O)[C@H](Cc2c[nH]c3ccccc23)NC1=O)C1CCOCC1` [X-B1-D3-W + A44] ([Mpa]P[Dap](Tetrahydropyran4carbonyl)W-Cysteamide; disulfide 1-C) it is 0.01122; for `O=C(Cc1ccc(Cl)cc1)NC[C@@H]1NC(=O)[C@@H]2CCCN2C(=O)CCSSCCNC(=O)[C@H](Cc2c[nH]c3ccccc23)NC1=O` [X-B1-D3-W + A45] ([Mpa]P[Dap](Phenylacetyl(4-Cl))W-Cysteamide; disulfide 1-C) it is 0.08387. On the same count and under the same terms, the figure for `Cc1nc2ccccn2c1C(=O)NC[C@@H]1NC(=O)[C@@H]2CCCN2C(=O)CCSSCCNC(=O)[C@H](Cc2c[nH]c3ccccc23)NC1=O` [X-B1-D3-W + A61] ([Mpa]P[Dap](X12)W-Cysteamide; disulfide 1-C) is 0.006636; for `O=C(CN1CCOCC1)NC[C@@H]1NC(=O)[C@@H]2CCCN2C(=O)CCSSCCNC(=O)[C@H](Cc2c[nH]c3ccccc23)NC1=O` [X-B1-D3-W + A63] ([Mpa]P[Dap](Morpholinoacetyl)W-Cysteamide; disulfide 1-C) it is 0.03922.

Turning to `CC(C)CCC(=O)NC[C@@H]1NC(=O)[C@@H]2CCCN2C(=O)CCSSCCNC(=O)[C@H](Cc2c[nH]c3ccccc23)NC1=O` [X-B1-D3-W + A68] ([Mpa]P[Dap](Pentanoyl(4-Me))W-Cysteamide; disulfide 1-C), the “fraction fluorescent probe displaced” value is given as -0.02228.

Consider `CC(=O)NCC(=O)NC[C@@H]1NC(=O)[C@@H]2CCCN2C(=O)CCSSCCNC(=O)[C@H](Cc2c[nH]c3ccccc23)NC1=O` [X-B1-D3-W + A83] ([Mpa]P[Dap]([Gly-Ac])W-Cysteamide; disulfide 1-C), for which the “fraction fluorescent probe displaced” value is on record as 0.1654. Same read-out and setting: the figure for `O=C(/C=C/c1ccccc1)NC[C@@H]1NC(=O)[C@@H]2CCCN2C(=O)CCSSCCNC(=O)[C@H](Cc2c[nH]c3ccccc23)NC1=O` [X-B1-D3-W + A91] ([Mpa]P[Dap](X1)W-Cysteamide; disulfide 1-C) is 0.1099. Same read-out and setting: the figure for `C[N+](C)(C)CC(=O)NC[C@@H]1NC(=O)[C@@H]2CCCN2C(=O)CCSSCCNC(=O)[C@H](Cc2c[nH]c3ccccc23)NC1=O` [X-B1-D3-W + A92] ([Mpa]P[Dap](Me3Gly)W-Cysteamide; disulfide 1-C) is -0.1286; for `COC(=O)CCC(=O)NC[C@@H]1NC(=O)[C@@H]2CCCN2C(=O)CCSSCCNC(=O)[C@H](Cc2c[nH]c3ccccc23)NC1=O` [X-B1-D3-W + A93] ([Mpa]P[Dap](MeOSuc)W-Cysteamide; disulfide 1-C) it is 0.1339. Still for that read-out and setting: next, `COc1ccc2cc(C(C)C(=O)NCC3NC(=O)C4CCCN4C(=O)CCSSCCNC(=O)C(Cc4c[nH]c5ccccc45)NC3=O)ccc2c1` (stereo not drawn) [X-B1-D3-W + A97] ([Mpa]P[Dap](ξNaproxenoyl)W-Cysteamide; disulfide 1-C; configuration not given here): 0.005277. For `O=C1NCCSSCCC(=O)N2CCC[C@H]2C(=O)N[C@@H](CNC(=O)C2(c3ccccc3)CCCCC2)C(=O)N[C@H]1Cc1c[nH]c2ccccc12` [X-B1-D3-W + A98] ([Mpa]P[Dap](X14)W-Cysteamide; disulfide 1-C), the “fraction fluorescent probe displaced” value was 0.6683. The same measure, in the same setting: next, `NC[C@@H]1NC(=O)[C@@H]2CCCN2C(=O)CCSSCCNC(=O)[C@H](Cc2c[nH]c3ccccc23)NC1=O` [X-B1-D3-W + No Acid] ([Mpa]P[Dap]W-Cysteamide; disulfide 1-C): 0.1075.

The target in another test is T1, thrombin (Homo sapiens, UniProt P00734).
T1 construct: consists of two polypeptide chains of 36 (light chain) and 259 amino acid
As to the kind of experiment: Thrombin inhibition screen of crude macrocycle reactions (residual thrombin activity, fluorogenic substrate Z-Gly-Gly-Arg-AMC). In kind it is biochemical. Particulars: 10 µM macrocycle concentration; crude reactions, Library 1a-l; scaffold AA1-AA2-AA3 combined with 1-16 or '-'. The protocol:
As a proof-of-concept, we screened the macrocycle library for inhibitors against thrombin, which is the central blood coagulation protease and an important therapeutic target. We conducted the screen for thrombin-inhibiting macrocycles in 384-well reaction plates. Briefly, each well contained a unique macrocycle (10 μM), 5 μL of thrombin (2 nM final conc.), and subsequently, 5 µL of a fluorogenic substrate to measure the residual thrombin activity and the extent of protease inhibition.
The assays were performed in 384-well plates using Tris buffer at pH 7.4 (100 mM Tris-Cl, 150 mM NaCl, 10 mM MgCl2, 1 mM CaCl2, 0.1% w/v BSA, 0.01% v/v Triton-X100, and 0.6% v/v DMSO) using thrombin at a final concentration of 2 nM and the fluorogenic substrate Z-Gly-Gly-Arg-AMC at a final concentration of 50 μM. Thrombin (5 μL, 6 nM) in the Tris-Cl buffer described above was added to each peptide using a BioTek MultiFlo microplate dispenser, and incubated for 10 min at room temperature. […] Data was collected and exported using the Tecan Infinite M200 Pro instrument software. […] For the negative controls (20 wells containing DMSO but no macrocycle), an average slope was calculated. The percent of thrombin inhibition was calculated by dividing the slopes and multiplying the results by 100.
`NC(=O)CC[C@@H]1NC(=O)[C@H](CCCCNC(=O)Cc2c[nH]c3ccccc23)NC(=O)[C@@H]2CCCN2C(=O)CCSSCCNC1=O` [B1-D1-Q/12] ([Mpa]PK(X3)Q-Cysteamide; disulfide 1-C): the “percent residual thrombin activity” value came out at 106.242%. In the case of `Cc1nnsc1C(=O)NCCCC[C@@H]1NC(=O)[C@@H]2CCCN2C(=O)CCSSCCNC(=O)[C@H](CCC(N)=O)NC1=O` [B1-D1-Q/15] ([Mpa]PK(1,2,3Thiadiazole5CO(4-Me))Q-Cysteamide; disulfide 1-C), the “percent residual thrombin activity” value is reported as 113.502%. The same measure, in the same setting: next, `CC(C)[C@H]1NC(=O)[C@H](CCCCNC(=O)c2ccccc2)NC(=O)[C@@H]2CCCN2C(=O)CCSSCCNC1=O` [B1-D1-v/1] ([Mpa]PK(Bz)[dV]-Cysteamide; disulfide 1-C): 107.218%. In the case of `CC(C)C1NC(=O)C(CCCCNC(=O)c2cnccn2)NC(=O)C2CCCN2C(=O)CCSSCCNC1=O` (stereo not drawn) [B1-D1-v/2] ([Mpa]PK(Pyrazinecarbonyl)V-Cysteamide; disulfide 1-C; configuration not given here), the “percent residual thrombin activity” value is given as 115.134%. As for `CC(C)CC(=O)NCCCC[C@@H]1NC(=O)[C@@H]2CCCN2C(=O)CCSSCCNC(=O)[C@@H](C(C)C)NC1=O` [B1-D1-v/8] ([Mpa]PK(Isovaleryl)[dV]-Cysteamide; disulfide 1-C), the “percent residual thrombin activity” value worked out at 112.751%.

Turning to `CC(C)[C@H]1NC(=O)[C@H](CCCCNC(=O)c2c[nH]c(=O)cn2)NC(=O)[C@@H]2CCCN2C(=O)CCSSCCNC1=O` [B1-D1-v/9] ([Mpa]PK(Pyrazinoyl(5-oxo-4H))[dV]-Cysteamide; disulfide 1-C), the “percent residual thrombin activity” value is on record as 111.698%.
